What was measured:
WEE1 = biological target: T1, WEE1 (Homo sapiens, UniProt P30291+Q96SW2); assay: Western blot degradation of WEE1 (hPBMC); assay type: cell-based; conditions: Table D16
T1 construct: evaluate the effects of the compounds of the present disclosure on the expression of target proteins in cells; endogenous in cells; host or cells: hPBMC
Method: (§1) Conventional Western blot assay was performed to evaluate the effects of the compounds of the present disclosure on the expression of target proteins in cells.
(§2) (1) Cell Seeding and Protein Harvesting: The selected cells were processed according to the cell seeding procedure and protein harvesting procedure in Table III-2. Table III-2 Cell Seeding and Protein Harvesting Procedures
(§3) (2) To the collected supernatant, 5X SDS sample loading buffer was added, followed by denaturation at 95°C for 5 minutes. The denatured samples were then separated by SDS-PAGE electrophoresis on a polyacrylamide gel. Proteins were transferred to a nitrocellulose membrane (0.45 µm NC membrane), blocked with blocking buffer at room temperature for 1 hour, and subjected to antibody incubation and development procedures according to the antibody manufacturer's instructions (Cell Signaling Technology).
(§4) Half-Maximal Degradation Concentration value (the drug concentration required for degrading proteins by 50%, abbreviated as DC50) reads method: comparing the grayscale values of Western blot bands from drug-treated samples with those from blank DMSO-treated controls, and identifying the drug concentration range at which the grayscale value is half that of the DMSO-treated control bands.
(§5) DC50 values can be calculated using ImageJ software to measure grayscale values of Western blot bands from drug-treated samples. The concentration-response curve is fitted to estimate the drug concentration corresponding to half the grayscale value.
(§6) Target protein remaining (%) refers to the percentage of target protein remaining in hPBMC cells after treatment with protein degrader compounds.
(§7) Calculation method for target protein remaining (%): Use ImageJ software to measure grayscale values of Western blot bands from drug (protein degrader)-treated samples. The grayscale value of drug-treated bands is divided by that of internal control protein bands, and the resulting quotient is normalized to obtain the relative percentage of remaining target protein after protein degrader treatment.
(§8) Target protein degradation rate (%) = 100% - target protein remaining (%).

IKZF2 = biological target: T2, IKZF2 (Homo sapiens, UniProt Q96SW2+Q9UKS7); assay: Western blot degradation of IKZF2 (hPBMC); assay type: cell-based; conditions: Table D16
T2 construct: evaluate the effects of the compounds of the present disclosure on the expression of target proteins in cells; endogenous in cells; host or cells: hPBMC
Method: as §1, §2, §3, §4, §5, §6, §7, §8

CK1a = biological target: T3, CK1a (Homo sapiens, UniProt P48729+Q96SW2); assay: Western blot degradation of CK1a (hPBMC); assay type: cell-based; conditions: Table D16
T3 construct: evaluate the effects of the compounds of the present disclosure on the expression of target proteins in cells; endogenous in cells; host or cells: hPBMC
T3 sequence (P48729 whole entry): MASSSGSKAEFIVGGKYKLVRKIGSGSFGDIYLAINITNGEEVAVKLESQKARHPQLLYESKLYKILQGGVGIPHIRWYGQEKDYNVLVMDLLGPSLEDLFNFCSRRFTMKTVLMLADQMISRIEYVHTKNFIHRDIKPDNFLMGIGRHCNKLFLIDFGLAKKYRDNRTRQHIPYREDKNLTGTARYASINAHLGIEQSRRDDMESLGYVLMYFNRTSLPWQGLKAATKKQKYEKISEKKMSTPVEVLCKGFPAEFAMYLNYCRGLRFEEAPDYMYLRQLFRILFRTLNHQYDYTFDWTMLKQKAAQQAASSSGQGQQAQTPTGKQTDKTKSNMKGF
T3 sequence (Q96SW2 whole entry): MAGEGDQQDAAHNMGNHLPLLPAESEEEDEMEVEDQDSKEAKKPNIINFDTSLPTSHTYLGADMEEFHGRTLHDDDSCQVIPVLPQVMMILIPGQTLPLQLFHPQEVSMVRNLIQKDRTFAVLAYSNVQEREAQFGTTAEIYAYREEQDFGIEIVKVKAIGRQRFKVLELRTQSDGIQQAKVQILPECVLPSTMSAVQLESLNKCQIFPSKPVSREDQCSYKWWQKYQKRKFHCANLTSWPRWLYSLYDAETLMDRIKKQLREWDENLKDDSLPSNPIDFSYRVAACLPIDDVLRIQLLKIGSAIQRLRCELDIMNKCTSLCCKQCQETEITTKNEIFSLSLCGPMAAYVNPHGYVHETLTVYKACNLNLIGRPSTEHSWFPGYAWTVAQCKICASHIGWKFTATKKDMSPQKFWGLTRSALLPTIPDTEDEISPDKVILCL
T3 sequence (Q16531 whole entry partner): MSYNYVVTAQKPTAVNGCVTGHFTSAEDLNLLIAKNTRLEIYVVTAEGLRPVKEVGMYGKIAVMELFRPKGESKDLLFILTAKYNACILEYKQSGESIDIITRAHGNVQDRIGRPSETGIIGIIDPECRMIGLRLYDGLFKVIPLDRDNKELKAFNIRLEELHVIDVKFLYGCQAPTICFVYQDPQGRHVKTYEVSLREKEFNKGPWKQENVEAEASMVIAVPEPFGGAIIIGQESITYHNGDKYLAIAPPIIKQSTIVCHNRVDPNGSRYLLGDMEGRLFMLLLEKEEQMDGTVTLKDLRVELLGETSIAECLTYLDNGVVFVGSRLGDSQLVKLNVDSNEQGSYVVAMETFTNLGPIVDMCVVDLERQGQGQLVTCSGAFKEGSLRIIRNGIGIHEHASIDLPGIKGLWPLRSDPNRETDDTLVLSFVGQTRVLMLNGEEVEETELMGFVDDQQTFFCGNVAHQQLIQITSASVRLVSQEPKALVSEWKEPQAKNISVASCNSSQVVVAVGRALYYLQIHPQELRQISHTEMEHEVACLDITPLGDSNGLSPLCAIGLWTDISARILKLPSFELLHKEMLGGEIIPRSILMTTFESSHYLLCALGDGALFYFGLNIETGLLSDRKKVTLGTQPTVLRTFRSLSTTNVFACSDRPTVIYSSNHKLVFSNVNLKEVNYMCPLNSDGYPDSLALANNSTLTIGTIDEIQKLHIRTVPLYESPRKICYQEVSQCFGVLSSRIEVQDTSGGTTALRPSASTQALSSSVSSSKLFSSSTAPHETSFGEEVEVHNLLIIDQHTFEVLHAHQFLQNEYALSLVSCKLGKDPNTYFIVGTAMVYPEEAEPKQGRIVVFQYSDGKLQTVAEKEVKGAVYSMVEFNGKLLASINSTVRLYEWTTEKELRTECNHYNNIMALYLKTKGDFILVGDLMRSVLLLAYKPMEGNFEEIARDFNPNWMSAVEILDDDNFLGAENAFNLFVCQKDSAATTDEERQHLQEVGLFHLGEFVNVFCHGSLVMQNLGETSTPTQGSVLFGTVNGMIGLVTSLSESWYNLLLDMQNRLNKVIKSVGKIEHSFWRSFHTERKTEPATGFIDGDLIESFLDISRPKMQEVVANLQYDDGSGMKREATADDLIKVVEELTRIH
Method: as §1, §2, §3, §4, §5, §6, §7, §8

GSPT1 = biological target: T4, GSPT1 (Homo sapiens, UniProt P15170+Q96SW2); assay: Western blot degradation of GSPT1 (hPBMC); assay type: cell-based; conditions: Table D16
T4 construct: evaluate the effects of the compounds of the present disclosure on the expression of target proteins in cells; endogenous in cells; host or cells: hPBMC
T4 sequence (P15170 whole entry): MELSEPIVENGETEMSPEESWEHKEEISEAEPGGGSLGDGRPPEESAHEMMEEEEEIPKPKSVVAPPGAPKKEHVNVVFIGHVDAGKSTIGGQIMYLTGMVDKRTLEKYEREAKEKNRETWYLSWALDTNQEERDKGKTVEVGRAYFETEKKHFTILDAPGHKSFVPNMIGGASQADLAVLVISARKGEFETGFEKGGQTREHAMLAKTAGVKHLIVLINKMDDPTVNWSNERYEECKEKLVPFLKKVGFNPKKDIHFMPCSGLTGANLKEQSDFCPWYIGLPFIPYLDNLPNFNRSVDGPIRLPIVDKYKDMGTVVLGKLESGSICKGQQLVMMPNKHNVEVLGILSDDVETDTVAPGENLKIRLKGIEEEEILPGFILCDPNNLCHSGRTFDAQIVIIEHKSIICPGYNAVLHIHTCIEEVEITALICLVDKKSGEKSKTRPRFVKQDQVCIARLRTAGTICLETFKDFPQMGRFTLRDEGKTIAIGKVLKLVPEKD
T4 sequence (Q96SW2 whole entry): as the sequence (Q96SW2 whole entry) above
T4 sequence (Q16531 whole entry partner): as the sequence (Q16531 whole entry partner) above
Method: as §1, §2, §3, §4, §5, §6, §7, §8

IKZF3 = biological target: T5, IKZF3 (Homo sapiens, UniProt Q96SW2+Q9UKT9); assay: Western blot degradation of IKZF3 (hPBMC); assay type: cell-based; conditions: Table D16
T5 construct: evaluate the effects of the compounds of the present disclosure on the expression of target proteins in cells; endogenous in cells; host or cells: hPBMC
Method: as §1, §2, §3, §4, §5, §6, §7, §8

IKZF1 = biological target: T6, IKZF1 (Homo sapiens, UniProt Q13422+Q96SW2); assay: Western blot degradation of IKZF1 (hPBMC); assay type: cell-based; conditions: Table D16
T6 construct: evaluate the effects of the compounds of the present disclosure on the expression of target proteins in cells; endogenous in cells; host or cells: hPBMC
T6 sequence (Q13422 whole entry): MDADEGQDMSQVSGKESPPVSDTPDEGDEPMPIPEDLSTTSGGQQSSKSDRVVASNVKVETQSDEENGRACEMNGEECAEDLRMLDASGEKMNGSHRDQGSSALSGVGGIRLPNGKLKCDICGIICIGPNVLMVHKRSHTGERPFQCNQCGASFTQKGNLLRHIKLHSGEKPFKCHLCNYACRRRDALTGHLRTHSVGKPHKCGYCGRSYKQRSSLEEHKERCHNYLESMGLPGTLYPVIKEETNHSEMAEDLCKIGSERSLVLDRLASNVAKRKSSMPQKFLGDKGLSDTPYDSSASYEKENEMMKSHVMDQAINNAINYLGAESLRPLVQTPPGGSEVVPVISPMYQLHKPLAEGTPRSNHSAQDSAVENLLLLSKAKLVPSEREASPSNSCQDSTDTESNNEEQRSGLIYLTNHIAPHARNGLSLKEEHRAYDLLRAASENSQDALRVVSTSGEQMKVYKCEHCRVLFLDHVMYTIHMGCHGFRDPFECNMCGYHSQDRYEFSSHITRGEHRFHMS
T6 sequence (Q96SW2 whole entry): as the sequence (Q96SW2 whole entry) above
T6 sequence (Q16531 whole entry partner): as the sequence (Q16531 whole entry partner) above
Method: as §1, §2, §3, §4, §5, §6, §7, §8

H2228 = assay: CCK-8 proliferation, NCI-H2228 (H2228); assay type: cell-based; conditions: Homo sapiens, NCI-H2228; Table B6, compounds designed based on the ALK inhibitors; H2228 cells; read-out: Inhibitory activity (IC50, nM) on tumor cell proliferation, H2228
Method in brief: (§9)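 CCK-8 viability readout; IC50 from growth-inhibition curve fitting. Cells plated, dosed 24h later with a 10-point series, top 10µM, 5-fold steps. Culture at 37°C, 5% CO2.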

ALK = biological target: T7, ALK (Homo sapiens, UniProt Q96SW2+Q9HC35+Q9UM73); assay: Western blot degradation of ALK (H2228 Cell); assay type: cell-based; conditions: Table D5
T7 construct: evaluate the effects of the compounds of the present disclosure on the expression of target proteins in cells; endogenous in cells; host or cells: H2228
T7 sequence (Q9HC35+Q9UM73 fused): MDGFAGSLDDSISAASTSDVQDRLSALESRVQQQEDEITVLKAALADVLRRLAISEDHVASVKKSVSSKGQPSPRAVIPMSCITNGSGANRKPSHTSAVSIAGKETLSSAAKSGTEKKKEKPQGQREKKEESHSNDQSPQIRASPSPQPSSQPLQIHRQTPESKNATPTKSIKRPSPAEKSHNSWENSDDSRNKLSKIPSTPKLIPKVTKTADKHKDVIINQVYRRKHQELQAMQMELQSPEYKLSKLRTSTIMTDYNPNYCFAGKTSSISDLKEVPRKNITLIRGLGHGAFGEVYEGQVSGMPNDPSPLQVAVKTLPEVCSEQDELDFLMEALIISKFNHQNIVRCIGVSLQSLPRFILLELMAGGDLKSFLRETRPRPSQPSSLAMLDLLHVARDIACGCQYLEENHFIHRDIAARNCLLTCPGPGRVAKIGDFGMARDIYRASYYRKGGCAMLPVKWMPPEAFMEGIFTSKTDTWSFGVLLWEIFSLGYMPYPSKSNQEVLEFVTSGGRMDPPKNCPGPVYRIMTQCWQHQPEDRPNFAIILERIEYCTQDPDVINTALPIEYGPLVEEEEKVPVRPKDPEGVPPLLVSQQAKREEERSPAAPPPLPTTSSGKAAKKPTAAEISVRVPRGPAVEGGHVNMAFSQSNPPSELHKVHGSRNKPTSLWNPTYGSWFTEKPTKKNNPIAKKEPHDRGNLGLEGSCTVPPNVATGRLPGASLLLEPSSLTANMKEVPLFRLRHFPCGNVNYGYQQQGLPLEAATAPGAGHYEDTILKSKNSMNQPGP
T7 sequence (Q96SW2 whole entry): as the sequence (Q96SW2 whole entry) above
T7 sequence (Q16531 whole entry partner): as the sequence (Q16531 whole entry partner) above
Method in brief: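 Degradation is assessed by immunoblotting lysates of treated cells. Target bands are quantified by grayscale and normalised to an internal control, so degradation rate equals 100% minus % remaining.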

MM.1S = assay: CCK-8 proliferation, MM.1S; assay type: cell-based; conditions: Homo sapiens, MM1.S; Table B6, compounds designed based on the ALK inhibitors; MM.1S cells; read-out: Inhibitory activity (IC50, nM) on tumor cell proliferation, MM.1S
Method in brief: as §9

SR = assay: CCK-8 proliferation, SR; assay type: cell-based, Human; conditions: Homo sapiens; Table B6, compounds designed based on the ALK inhibitors; SR cells; read-out: Inhibitory activity (IC50, nM) on tumor cell proliferation, SR
Method in brief: as §9

MCF7 = assay: CCK-8 proliferation, MCF7 (MCF-7); assay type: cell-based; conditions: Homo sapiens, MCF7; Table B6, compounds designed based on the ALK inhibitors; MCF-7 cells; read-out: Inhibitory activity (IC50, nM) on tumor cell proliferation, MCF-7
Method in brief: as §9

H1975 = assay: CCK-8 proliferation, NCI-H1975 (H1975); assay type: cell-based, Human; conditions: Homo sapiens, NCI-H1975; Table B6, compounds designed based on the ALK inhibitors; H1975 cells; read-out: Inhibitory activity (IC50, nM) on tumor cell proliferation, H1975
Method in brief: as §9

T1 sequence (P30291 whole entry): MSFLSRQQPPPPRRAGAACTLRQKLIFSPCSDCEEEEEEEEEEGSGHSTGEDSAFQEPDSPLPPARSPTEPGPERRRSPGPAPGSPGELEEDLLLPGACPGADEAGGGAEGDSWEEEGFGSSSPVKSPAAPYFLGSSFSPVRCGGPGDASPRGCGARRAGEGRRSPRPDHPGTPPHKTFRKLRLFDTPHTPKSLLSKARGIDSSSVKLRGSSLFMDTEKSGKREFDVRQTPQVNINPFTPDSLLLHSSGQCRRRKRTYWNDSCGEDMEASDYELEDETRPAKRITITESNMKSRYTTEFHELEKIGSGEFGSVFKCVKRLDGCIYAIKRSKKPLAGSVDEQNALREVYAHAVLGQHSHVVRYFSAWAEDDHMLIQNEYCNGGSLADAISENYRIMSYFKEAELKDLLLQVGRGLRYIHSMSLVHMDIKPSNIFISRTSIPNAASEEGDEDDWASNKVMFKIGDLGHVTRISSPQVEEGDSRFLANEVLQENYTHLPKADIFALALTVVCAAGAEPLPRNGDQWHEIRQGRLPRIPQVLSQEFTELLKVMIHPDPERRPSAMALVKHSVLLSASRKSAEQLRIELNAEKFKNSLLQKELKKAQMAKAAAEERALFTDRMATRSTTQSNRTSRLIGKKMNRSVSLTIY
T1 sequence (Q96SW2 whole entry): as the sequence (Q96SW2 whole entry) above
T1 sequence (Q16531 whole entry partner): as the sequence (Q16531 whole entry partner) above

Row | SMILES | IC50 (H2228) [nM] | IC50 (MM.1S) [nM] | IC50 (MCF7) [nM] | IC50 (H1975) [nM] | Degradation of substrate protein WEE1 (substrate protein remaining %) (WEE1) | Degradation of substrate protein IKZF2 (substrate protein remaining %) (IKZF2) | Degradation of substrate protein CKla (substrate protein remaining %) (CK1a) | Degradation of substrate protein GSPT1 (substrate protein remaining %) (GSPT1) | Degradation of substrate protein IKZF3 (substrate protein remaining %) (IKZF3) | Degradation of substrate protein IKZF1 (substrate protein remaining %) (IKZF1) | Degradation of substrate protein ALK (substrate protein remaining %) (ALK) | IC50 (SR) [nM]
1 | NCc1ccc(N2CCC(=O)NC2=O)cn1 [GT-07048, 1-(6-(Aminomethyl)pyridin-3-yl)dihydropyrimidine-2,4(1H,3H)-dione] |  |  |  |  | B (B is defined as substrate protein remaining % > 80%) | A (A is defined as 0% ≤ substrate protein remaining % ≤ 80%) | A (A is defined as 0% ≤ substrate protein remaining % ≤ 80%) | A (A is defined as 0% ≤ substrate protein remaining % ≤ 80%) | A (A is defined as 0% ≤ substrate protein remaining % ≤ 80%) | A (A is defined as 0% ≤ substrate protein remaining % ≤ 80%) |  | 
2 | CCc1cc2c(cc1N1CCN(Cc3ccc(C4CCC(=O)NC4=O)cc3)CC1)C(C)(C)c1[nH]c3cc(C#N)ccc3c1C2=O (centres unmarked) [GT-07323, 8-(4-(4-(2,6-dioxopiperidin-3-yl)benzyl)piperazin-1-yl)-9-ethyl-6,6-dimethyl-11-oxo-6,11-dihydro-5H-benzo[b]carbazole-3-carbonitrile] | 100 to 500 | 500 to 1000 |  |  |  |  |  |  |  |  | A (A is defined as 0% ≤ substrate protein remaining % ≤ 80%) | 1 to 10
3 | Cc1cc(Nc2ncc(Cl)c(Nc3ccccc3S(=O)(=O)C(C)C)n2)c(OC(C)C)cc1C1CCN(Cc2ccc(C3CCC(=O)NC3=O)cn2)CC1 (centres unmarked) [GT-07600, 3-(6-((4-(4-((5-chloro-4-((2-(isopropylsulfonyl)phenyl)amino)pyrimidin-2-yl)amino)-5-isopropoxy-2-methylphenyl)piperidin-1-yl)methyl)pyridin-3-yl)piperidine-2,6-dione] | 50 to 100 | 500 to 1000 | 100 to 500 |  |  |  |  |  |  |  | A (A is defined as 0% ≤ substrate protein remaining % ≤ 80%) | 10 to 50

Continued, in another order:

Row | IC50 (H2228) [nM] | IC50 (MM.1S) [nM] | IC50 (MCF7) [nM] | IC50 (H1975) [nM] | SMILES | Degradation of substrate protein WEE1 (substrate protein remaining %) (WEE1) | Degradation of substrate protein IKZF2 (substrate protein remaining %) (IKZF2) | Degradation of substrate protein CKla (substrate protein remaining %) (CK1a) | Degradation of substrate protein GSPT1 (substrate protein remaining %) (GSPT1) | Degradation of substrate protein IKZF3 (substrate protein remaining %) (IKZF3) | Degradation of substrate protein IKZF1 (substrate protein remaining %) (IKZF1) | Degradation of substrate protein ALK (substrate protein remaining %) (ALK) | IC50 (SR) [nM]
4 | 50 to 100 | 500 to 1000 | 100 to 500 |  | Cc1cc(Nc2ncc(Cl)c(Nc3ccccc3S(=O)(=O)C(C)C)n2)c(OC(C)C)cc1C1CCN(Cc2cccc(N3CCC(=O)NC3=O)c2)CC1 [GT-07593, 1-(3-((4-(4-((5-chloro-4-((2-(isopropylsulfonyl)phenyl)amino)pyrimidin-2-yl)amino)-5-isopropoxy-2-methylphenyl)piperidin-1-yl)methyl)phenyl)dihydropyr imidine-2,4(1H,3H)-dione] |  |  |  |  |  |  | A (A is defined as 0% ≤ substrate protein remaining % ≤ 80%) | 10 to 50
5 | 10 to 50 | 500 to 1000 | 100 to 500 | 100 to 500 | COc1cc(N2CCC(N(C)Cc3ccnc(N4CCC(=O)NC4=O)c3)CC2)ccc1Nc1ncc(Cl)c(Nc2ccccc2P(C)(C)=O)n1 [GT-07694, 1-(4-(((1-(4-((5-chloro-4-((2-(dimethylphosphoryl)phenyl)amino)pyrimidin-2-yl)amino)-3-methoxyphenyl)piperidin-4-yl)(methyl)amino)methyl)pyridin-2-yl)dihydropyrimidine-2,4(1H,3H)-dione] |  |  |  |  |  |  | A (A is defined as 0% ≤ substrate protein remaining % ≤ 80%) | 1 to 10
